What was measured:
HIV = settings: cited from earlier work
[1] = system: noninfected H9 lymphocytes; settings: cited from earlier work
IL-10 = settings: at 10 μg mL^-1; cited from earlier work
IL-12 = settings: at 10 μg mL^-1; cited from earlier work
[2] = system: tumor necrosis factor-α (TNFα); settings: at 10 μg mL^-1; cited from earlier work
[3] = Cytotoxicity against non-infected MT-2 lymphocytes; settings: human
HIV-1 = experiment: Inhibition of HIV-1 replication in MT-2 lymphocytes; settings: for TI, therapeutic index (CC50/IC50): MT-2 CC50 / HIV-1 IC50

Molecule	TI, therapeutic index (CC50/IC50) (HIV-1)	CC50 (MT-2 lymphocytes)	also measured
C=C[C@@]1(C)COC(=O)[C@]12O[C@]1(c3ccccc3)[C@H](C2=O)[C@H]2[C@H]([C@H](C)CCC=C(C)C)CC=C(C)[C@H]21 [2b, biyouyanagin A]	7.5		EC50, inhibition of HIV replication in H9 lymphocytes (HIV): 0.798 µg/mL; EC50, noninfected H9 lymphocytes [1]: > 25 µg/mL; LPS-induced cytokine production, IL-10 (IL-10): 0.03; LPS-induced cytokine production, IL-12 (IL-12): 0.02; LPS-induced cytokine production, TNFα [2]: 0.48; CC50 [3]: 198 µM; IC50 (HIV-1; Human immunodeficiency virus 1, Lymphocyte, read-out: HIV-1 IC50): 26 µM
Cc1cn([C@H]2C[C@H](N=[N+]=[N-])[C@@H](CO)O2)c(=O)[nH]c1=O [AZT, reference compound]	>641	> 50 µM	
C=C[C@@]1(C)COC(=O)[C@]12OC(c1ccccc1)=CC2=O [compound 18, hyperolactone C]	32.0	925 µM	
24-epi-biyouyanagin A [2a]		285 µM	
4-epi-hyperolactone C [compound 16]		462 µM	

From article PMC2614900 (Journal of the American Chemical Society, 2008)
